The assay relates to human sperm. Description: Efficacy of metal salts, albumin and dextran on motility of human sperm in vitro. Particulars: for concentration at which spermiostatic (motility of sperm arrested): human sperm in vitro.

For ferrous sulfate, the “concentration at which spermiostatic (motility of sperm arrested)” value (from here on “concentration at which spermiostatic”) is 10 mM.

Take “dihydrate ferrous gluconate [dihydrate form of ferrous gluconate]”: the “onset of spermiostatic effect” value (dihydrate form of ferrous gluconate) is given as “immediate”.

With `[Ca+2].[Cl-].[Cl-]` [calcium chloride], the “concentration at which spermiostatic” value was 25 mM.

For the compound ferrous gluconate, the “concentration at which spermiostatic” value is 12.5 mM. The immobilization of sperm (25 mM solution) is 97.4%. Moreover, the immobilization of sperm entry (37.5 mM solution) is “completely immobilized all the sperm”. In addition, for the setting “2.5% dextran added to 12.5-mM ferrous gluconate solution”, the additional spermiostatic effect result is “no additional spermiostatic effect”. Also, where the note is “2.5% dextran and 5% albumin added to 12.5 mM ferrous gluconate”, the “enhancement of the spermiostatic effect” value is listed as “no enhancement of the spermiostatic effect”.

Consider albumin, for which, under “10% albumin”, the sperm motility result is reported as “decreased sperm motility almost close to that of 12.5 mM concentration of ferrous gluconate”. Besides, the sperm completely immobilized was ~97% (20% albumin) and ~97% (40% albumin). Where the note is “lower concentrations of albumin and dextran”, the spermiostatic effects entry is reported as “not significant”.

Turning to `O=S(=O)([O-])[O-].[Cu+2]` [copper sulfate], the “concentration at which spermiostatic” value was determined as 6.25 mM. Moreover, the immobilization of sperm (25 mM solution) was 93.3%. Besides, for the setting “37.5 mM solution”, the immobilization of sperm result is “completely immobilized all the sperm”. In addition, the additional spermiostatic effect entry (2.5% dextran added to 6.5-mM copper sulfate solution) is recorded as “no additional spermiostatic effect”.

For the compound `[Cl-].[Cl-].[Mg+2]` [magnesium chloride], the “concentration at which spermiostatic” value amounted to 35 mM.

The values are drawn from patent US20040013730A1, “Non-hormonal vaginal contraceptive” (priority 2003, published 2004).
